These results are taken from ChEMBL document CHEMBL4118274, “Synthesis and biological evaluation of pyridine-linked indanone derivatives: Potential agents for inflammatory bowel disease” (Bioorg Med Chem Lett, 2018).

SMILES strings stand for the structures. Active and inactive are the calls of the source. The rule behind the calls is not given here. Bounds are passed on as bounds.

Assay [1] concerns the target Tumor necrosis factor (Homo sapiens) (UniProt P01375). In words: Inhibition of TNFalpha (unknown origin)-induced adhesion of BCECF fluorescence-labeled human U937 cells to human HT-29 cells at 10 uM measured at 3 hrs post TNFalpha stimulation relative to control.
Assay [2] shares this target. In words: Potency index, ratio of test compound activity to 5-aminosalicylate activity for inhibition of TNFalpha (unknown origin)-induced adhesion of BCECF fluorescence-labeled human U937 cells to human HT-29 cells.
Assay [3] shares this target. In words: Inhibition of TNFalpha (unknown origin)-induced adhesion of BCECF fluorescence-labeled human U937 cells to human HT-29 cells at 20 mM measured at 3 hrs post TNFalpha stimulation relative to control.
The target is the same in assay [4]. In words: Inhibition of TNFalpha (unknown origin)-induced NFkappaB transcriptional activity in human HT-29 cells at 10 uM pretreated with cells for 1 hr followed by TNFalpha induction for 3 hrs by dual luciferase reporter gene assay. In kind it is cell-based. (In a reporter assay the amount or activity of a reporter protein is the signal.)
Assay [5] shares this target. In words: Inhibition of TNFalpha (unknown origin)-induced decrease in E-cadherin expression in human HT-29 cells at 10 uM pretreated with cells for 1 hr followed by TNFalpha induction for 3 hrs by Western blot analysis. It counts as cell-based. (In general: Immunoblotting shows a protein as a band on a membrane.)
For assay [6], the system named is Rattus norvegicus. In words: In vivo of inhibition of TNBS-induced increase in colon weight in TNBS-induced colitis Sprague-Dawley rat model at 25 mg/kg/day, po administered on day of TNBS administration and on four consecutive days measured on day 6. It counts as functional, organism-based.
The target of assay [7] is Tumor necrosis factor (Homo sapiens) (UniProt P01375). In words: Inhibition of TNFalpha (unknown origin)-induced SNAIL expression in human HT-29 cells at 10 uM pretreated with cells for 1 hr followed by TNFalpha induction for 3 hrs by Western blot analysis. It counts as cell-based.
For assay [8], the system named is Rattus norvegicus. In words: In vivo of inhibition of TNFalpha-induced up-regulation of ICAM-1 expression in TNBS-induced colitis Sprague-Dawley rat model at 25 mg/kg/day, po administered on day of TNBS administration and on four consecutive days measured on day 6 by Western blot method. In kind it is functional, organism-based.
For assay [9], the target named is Tumor necrosis factor (Homo sapiens) (UniProt P01375). In words: Inhibition of TNFalpha (unknown origin)-induced MCP-1 expression in human HT-29 cells at 10 uM preincubated with cells for 1 hr followed by TNFalpha induction of 3 hrs by Western blot analysis. It counts as cell-based.
Assay [10] has as its system Rattus norvegicus. In words: In vivo of inhibition of TNBS-induced increase in myeloperoxidase level in TNBS-induced colitis Sprague-Dawley rat model colon tissue at 25 mg/kg/day, po administered on day of TNBS administration and on four consecutive days measured on day 6. In kind it is functional, organism-based.
Assay [11] deals with Tumor necrosis factor (Homo sapiens) (UniProt P01375). In words: Potency index, ratio of 5-aminosalicylate IC50 to test compound IC50 for TNFalpha (unknown origin)-induced adhesion of BCECF fluorescence-labeled human U937 cells to human HT-29.
For assay [12], the system named is Rattus norvegicus. In words: In vivo of inhibition of TNFalpha-induced decrease in E-cadherin expression in TNBS-induced colitis Sprague-Dawley rat model at 25 mg/kg/day, po administered on day of TNBS administration and on four consecutive days measured on day 6 by Western blot method. It counts as functional, organism-based.
Assay [13] concerns Rattus norvegicus. In words: In vivo of inhibition of TNFalpha-induced up-regulation of MCP-1 expression in TNBS-induced colitis Sprague-Dawley rat model at 25 mg/kg/day, po administered on day of TNBS administration and on four consecutive days measured on day 6 by Western blot method. It counts as functional, organism-based.
Assay [14] deals with Rattus norvegicus. In words: In vivo of inhibition of TNBS-induced up-regulation of TNFalpha in TNBS-induced colitis Sprague-Dawley rat model at 25 mg/kg/day, po administered on day of TNBS administration and on four consecutive days measured on day 6 by Western blot method. It counts as functional, organism-based.
The test system of assay [15] is Rattus norvegicus. In words: In vivo of inhibition of TNBS-induced up-regulation of IL-1beta in TNBS-induced colitis Sprague-Dawley rat model at 25 mg/kg/day, po administered on day of TNBS administration and on four consecutive days measured on day 6 by Western blot method. It counts as functional, organism-based.
Assay [16] addresses Tumor necrosis factor (Homo sapiens) (UniProt P01375). In words: Inhibition of TNFalpha (unknown origin)-induced ICAM-1 expression in human HT-29 cells at 10 uM preincubated with cells for 1 hr followed by TNFalpha induction of 3 hrs by Western blot analysis. In kind it is cell-based.
Assay [17] relates to Rattus norvegicus. In words: In vivo of inhibition of TNFalpha-induced SNAIL expression in TNBS-induced colitis Sprague-Dawley rat model at 25 mg/kg/day, po administered on day of TNBS administration and on four consecutive days measured on day 6 by Western blot method. It counts as functional, organism-based.
For assay [18], the system named is Rattus norvegicus. In words: In vivo of inhibition of TNBS-induced decrease in body weight in TNBS-induced colitis Sprague-Dawley rat model at 25 mg/kg/day, po administered on day of TNBS administration and on four consecutive days measured on day 6. In kind it is functional, organism-based.
Assay [19] deals with Rattus norvegicus. In words: In vivo of inhibition of TNBS-induced decrease in body weight in TNBS-induced colitis Sprague-Dawley rat model at 300 mg/kg/day, po administered on day of TNBS administration and on four consecutive days measured on day 6. In kind it is functional, organism-based.
Assay [20] concerns Rattus norvegicus. In words: In vivo of inhibition of TNBS-induced increase in myeloperoxidase level in TNBS-induced colitis Sprague-Dawley rat model colon tissue at 300 mg/kg/day, po administered on day of TNBS administration and on four consecutive days measured on day 6. It counts as functional, organism-based.
Assay [21] has as its system Rattus norvegicus. In words: In vivo of inhibition of TNBS-induced increase in colon weight in TNBS-induced colitis Sprague-Dawley rat model at 300 mg/kg/day, po administered on day of TNBS administration and on four consecutive days measured on day 6. It counts as functional, organism-based.

Tumor necrosis factor (Homo sapiens), sequence (P01375 whole entry): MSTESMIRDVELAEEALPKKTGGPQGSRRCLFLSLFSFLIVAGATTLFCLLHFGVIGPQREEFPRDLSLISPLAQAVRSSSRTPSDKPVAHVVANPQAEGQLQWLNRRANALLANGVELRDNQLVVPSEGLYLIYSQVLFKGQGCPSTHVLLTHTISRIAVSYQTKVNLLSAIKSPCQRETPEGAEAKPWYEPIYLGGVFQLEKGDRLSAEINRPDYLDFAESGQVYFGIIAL

In turn, `O=C1/C(=C/c2ccccn2)Cc2cc(O)ccc21` yielded an inhibition in assay [1] of 58.1%. For the same compound, the Ratio in assay [2] lay within 7 to 23.
The corresponding values for `O=C1/C(=C/c2cccnc2)Cc2cc(O)ccc21` are 67% and 7 to 23.
The matching figures for `O=C1/C(=C/c2ccccn2)Cc2cccc(O)c21`: 46.2% and 7 to 23.
The corresponding values for `O=C1/C(=C/c2ccccn2)Cc2ccc(O)cc21` are 54.8% and 7 to 23.
In turn, `Nc1ccc(O)c(C(=O)O)c1` registered an inhibition in assay [3] of 52.1%.
As to `CC(C)Oc1ccc2c(c1)C(=O)/C(=C/c1ccncc1)C2`, the inhibition in assay [1] turned out to be 45.7%.
As to `CC(C)Oc1cccc2c1C/C(=C\c1ccncc1)C2=O`, the inhibition in [1] was found to be 60.9%.
`O=C1/C(=C/c2cccnc2)Cc2c(O)cccc21`: the inhibition in assay [1] amounted to 70.8%. For the same compound, in assay [4], the inhibition result is “Active”. The inhibition entry in assay [5] was “inactive”. Further, the Ratio in assay [2] is 7 to 23.
With `O=C1/C(=C/c2ccncc2)Cc2ccc(O)cc21`, the inhibition result in assay [6], in assay [7], in assay [8], in [9], in [10] and in [12] was “Active” in each case. Besides, the inhibition entry in assay [13], in assay [14], in assay [15], in assay [16], in assay [4] and in [5] was “Active” in each case. The inhibition result in assay [17] and in assay [18] was “Active” each time. In [1], this compound registered an inhibition of 85.5%. Moreover, the Ratio IC50 in assay [11] is above 10000. Moreover, in assay [2], the Ratio lay within 7 to 23.
Consider `O=C1/C(=C/c2ccncc2)Cc2c(O)cccc21`, for which the inhibition entry in [6], in [7], in [8], in [9], in [10] and in [12] was “Active” throughout. Further, the inhibition entry in assay [13], in assay [14], in assay [15], in assay [16], in [4] and in assay [5] was “Active” in each case. Further, the inhibition entry in assay [17] and in assay [18] was “Active” in each case. For the same compound, in [1], the inhibition is 78%. Further, in assay [2], the Ratio lay in the range of 7 to 23.
`O=C(O)c1cc(/N=N/c2ccc(S(=O)(=O)Nc3ccccn3)cc2)ccc1O`: the inhibition entry in assay [19], in [20] and in assay [21] was “Active” in each case.
Turning to `O=C1/C(=C/c2ccncc2)Cc2cccc(O)c21`, in assay [1], the inhibition was determined as 74.6%. In assay [4], the inhibition entry was “Active”. For the same compound, the inhibition entry in assay [5] is “inactive”. The Ratio in assay [2] lay in the range of 7 to 23.
As to `O=C1/C(=C/c2ccccn2)Cc2c(O)cccc21`, the inhibition in [1] turned out to be 64.5%. In [2], the Ratio lay in the range of 7 to 23.
As to `CCOc1ccc2c(c1)C(=O)/C(=C/c1ccncc1)C2`, the inhibition in assay [1] is 7.3%.
For `COc1ccc2c(c1)C(=O)/C(=C/c1ccncc1)C2`, the inhibition in assay [1] came to 4.1%.
`O=C1/C(=C/c2cccnc2)Cc2cccc(O)c21` showed an inhibition in assay [1] of 46.1%. Moreover, the Ratio in assay [2] lay in the range of 7 to 23.
For the compound `COc1cccc2c1C/C(=C\c1ccncc1)C2=O`, the inhibition in assay [1] was found to be 5.9%.
The same measure, in the same setting: the result for `CCOc1cccc2c1C/C(=C\c1ccncc1)C2=O` reads 51.2%.
For `O=C1/C(=C/c2ccncc2)Cc2cc(O)ccc21`, the inhibition in [1] is 26.6%. Moreover, in [2], the Ratio lay in the range of 7 to 23.
As for `O=C1/C(=C/c2cccnc2)Cc2ccc(O)cc21`, the inhibition in assay [1] is 74.7%. The inhibition entry in assay [4] is “Active”. Moreover, the inhibition result in [5] is “inactive”. For the same compound, the Ratio in [2] lay within 7 to 23.

By inhibition is commonly meant the share of the control response that was lost under treatment.
